Experimental data taken from paper PMC11858207, “Discovery of Isobavachin, a Natural Flavonoid, as an Apolipoprotein E4 (ApoE4) Structure Corrector for Alzheimer’s Disease” (Molecules, 2025).
“And” between values parts separate entries of the source, which are not always exact repeats. Equal values may be shown once.

How the values were obtained:
human recombinant ApoE4 = target: T1, human recombinant ApoE4 (Homo sapiens, UniProt P02649, C130R); assay: Surface plasmon resonance (SPR) binding, ApoE4; conditions: Biacore T200
T1 construct: purchased PeproTech
T1 sequence (P02649 19-317 C130R): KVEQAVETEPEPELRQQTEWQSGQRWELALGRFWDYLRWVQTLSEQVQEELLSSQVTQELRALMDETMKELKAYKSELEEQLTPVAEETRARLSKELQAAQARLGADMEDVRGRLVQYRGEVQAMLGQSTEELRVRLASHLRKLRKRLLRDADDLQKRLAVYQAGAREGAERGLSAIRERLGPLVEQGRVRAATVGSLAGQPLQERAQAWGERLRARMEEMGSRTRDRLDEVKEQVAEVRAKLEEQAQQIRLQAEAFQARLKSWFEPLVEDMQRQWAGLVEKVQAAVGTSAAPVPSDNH
Description: (§1) The top virtual hit Isobavachin was further subjected to surface plasmon resonance (SPR) analysis using Biacore T200 (Cytiva, Marlborough, MA, USA) to determine its binding constants with both the ApoE3 and ApoE4 proteins. Together with the human recombinant ApoE3 and ApoE4 proteins, a negative control protein 2′-deoxynucleoside 5′-phosphate N-hydrolase (His-Sumo-DNPH1) was also included in the SPR analysis. The His-Sumo-DNPH1 is structurally unrelated to ApoE proteins, while having a similar size as ApoE proteins (~30 KDa).
(§2) The biophysical binding analysis of ligands with ApoE3 and ApoE4 proteins was carried out using the SPR technique. Human recombinant ApoE3 or ApoE4 proteins were purchased from PeproTech (Cranbury, NJ, USA) and reconstituted according to the manufacturer’s instructions. The negative control protein was His-Sumo-DNPH1 (2′-deoxynucleoside 5′-phosphate N-hydrolase 1), produced in-house in E. coli by The Wistar Institute, Philadelphia. The proteins were covalently attached to a carboxymethyl dextran sensor chip (CMD700M, from Xantec bioanalytics, Düsseldorf, Germany) using standard amine coupling in HEPES buffered saline. The chip is first conditioned for 180 s at 10 µL/min with 1 M NaCl, 0.1 mM Na Borate, pH 9.0, and then activated with 250 mM EDC/100 mM NHS for 600 s at 10 µL/min. The ApoE3/4 and DNPH1 proteins diluted in 10 mM sodium acetate (pH 5.5 and 4.0, respectively) were injected and immobilized on respective flow cells. After immobilization, the remaining activated sites were blocked with 1 M ethanolamine at 10 µL/min for 180 s. Test compounds (purchased from Cayman Chemical (Ann Arbor, MI, USA) and MedChemExpress (Monmouth Junction, NJ, USA)) were first diluted in pure DMSO, which were then further diluted in the running buffer without DMSO (10 mM HEPES, pH 7.4, 150 mM NaCl, 0.005% Tween20) to match the DMSO concentrations of the sample and the running buffer. The association and dissociation times were 60s and 120s, respectively, and the flow rate was 30 µL/min. After each compound injection, the needle was washed in 50% DMSO to reduce compound carry-over. Solvent correction cycles were also included to correct for bulk refractive index changes associated with DMSO.

[1] = target: T2, His-Sumo-DNPH1 (2′-deoxynucleoside 5′-phosphate N-hydrolase 1) (Homo sapiens, UniProt O43598); assay: Surface plasmon resonance (SPR) binding, negative control protein
T2 construct: made in house; host or cells: E. coli
T2 sequence (O43598 1-174): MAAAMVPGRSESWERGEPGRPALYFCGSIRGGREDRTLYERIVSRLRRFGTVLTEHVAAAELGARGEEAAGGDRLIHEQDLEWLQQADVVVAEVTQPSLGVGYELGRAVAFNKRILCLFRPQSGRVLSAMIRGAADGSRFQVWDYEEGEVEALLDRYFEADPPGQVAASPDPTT
Description: as §1, §2

human recombinant ApoE3 = target: T3, human recombinant ApoE3 (Homo sapiens, UniProt P02649); assay: Surface plasmon resonance (SPR) binding, ApoE3; conditions: Biacore T200
T3 construct: purchased PeproTech
T3 sequence (P02649 19-317): as the sequence (P02649 19-317 C130R) above, with R112C counted along it
Description: as §1, §2

[2] = set-up: method as in PMID 29425649; conditions: cited from earlier work
ApoE4 = target: ApoE4; set-up: method as in PMID 30933499; conditions: experimental ApoE4 binding Kd reported by AbbVie team; read-out: NMR Kd; cited from earlier work

Kd (human recombinant ApoE4)	DNPH1 Kd [1]	Kd (human recombinant ApoE3)	Kd [1] [µM]	Structure (SMILES)	blood–brain barrier (BBB) penetration [2]	Kd (ApoE4) [µM]
64 µM	No binding	59 µM	–	CC(C)=CCc1cc2c(cc1O)O[C@H](c1ccc(O)cc1)CC2=O [Bavachin]	–	–
> 100 µM	–	> 100 µM	> 100	O=c1c(-c2ccc(O)cc2)coc2cc(O)ccc12 [Daidzein]	–	–
77 µM	–	> 100 µM	> 100	CC(C)=CCc1cc([C@@H]2CC(=O)c3ccc(O)c(CC=C(C)C)c3O2)ccc1O [Glabrol]	–	–
~0.54 µM and 0.54 µM	–	~0.62 µM and 0.62 µM	> 100	CC(C)=CCc1c(O)ccc2c1O[C@H](c1ccc(O)cc1)CC2=O [Isobavachin]	readily penetrate	–
40 µM	–	38 µM	> 100	COc1cc(O)c(CC=C(C)C)c2c1C(=O)CC(c1ccc(O)cc1)O2 (stereo not shown) [Isoxanthohumol]	–	–
> 100 µM	–	> 100 µM	69	CC(C)=CCc1c(-c2ccc(O)cc2O)oc2c3c(cc(O)c2c1=O)OC(C)(C)C=C3 [Morusin]	–	–
> 100 µM	–	> 100 µM	> 100	CC(C)=CCc1c(-c2ccc(O)cc2O)oc2c(CC=C(C)C)c(O)cc(O)c2c1=O [Mulberrin]	–	–
–	–	–	–	N=C(N)C1(c2cccc(Cl)c2)CCC1 [compound 83673143]	–	900 ± 108
–	–	–	–	CC(C)(O)c1ccc(-c2cc(Cl)cc(C3(C(=N)N)CCC3)c2)cc1 [compound 137796780]	–	30 ± 4
–	–	–	–	N=C(N)C1(c2cc(Cl)cc(-c3ccccc3)c2)CCC1 [compound 155530661]	–	230 ± 24
–	–	–	–	CCNS(=O)(=O)c1ccc(-c2cc(Cl)cc(C3(C(=N)N)CCC3)c2)cc1 [compound 155552638]	–	20 ± 4
–	–	–	–	N=C(N)C1(c2cc(Cl)cc(-c3ccc(CO)c(Cl)c3)c2)CCC1 [compound 155557185]	–	8 ± 3
–	–	–	–	CC(=O)NCc1ccc(-c2cc(Cl)cc(C3(C(=N)N)CCC3)c2)cc1 [compound 155563897]	–	20 ± 3

Structure (SMILES)	Kd (human recombinant ApoE4)	DNPH1 Kd [1]	Kd (human recombinant ApoE3)	Kd [1] [µM]	blood–brain barrier (BBB) penetration [2]	Kd (ApoE4) [µM]
O=c1c(-c2ccc(O)cc2)coc2cc(O)cc(O)c12 [Genistein]	> 100 µM	–	> 100 µM	> 100	–	–
Oc1ccc(C2=Cc3ccc(O)cc3OC2)cc1 [Idronoxil]	> 100 µM	–	> 100 µM	> 100	–	–
